Measured values from patent US5556744A, “Methods and compositions for diagnosing and treating certain HIV infected patients” (The Trustees of the University of Pennsylvania, priority 1994, dated 1996).

Legend:
[1] = tested on: HIV-1 infected cells (MN isolate); experiment: Anti-syncytial assay (inhibition of HIV-1 MN syncytium formation, SupT1 target cells); format: cell-based
Excerpt: The H9 cell line (a cutaneous T lymphoma line) infected by HIV-IIIB [ATCC CRL 8543] was used in the neutralization assay. The H9 cell line infected by HIV-MN was used in the anti-syncytial assays. SupT1 and Hut78 cells were used as the target cell lines for the anti-syncytial and neutralization assays. All cell lines were obtained from the National Institutes of Health AIDS Repository (Bethesda, Md.).
To analyze the effect of the maternal serum samples on HIV-1 fusion, SupT1 cells were used as target cells in an anti-syncytial assay. Dilutions of the different maternal serum samples were made in 96 well plates in RPMI 1640 media containing 10% fetal calf serum at final dilutions of 1:4, 1:8, 1:16, 1:32, 1:64, 1:128, 1:256 or 1:512. HIV-1 infected cells (MN isolate) were then plated in the wells at a density of approximately 10^4 cells per well. SupT1 target cells were then added at 5×10^5 /well and the number of syncytia are determined after 3 days of incubation. Inhibition of syncytium formation by a serum sample was considered significant if the dilution which yielded a 50% reduction in the number of syncytia when compared to control was greater than 1:32. The average number of syncytia in the control (normal human serum) wells at the above dilutions were: 45.5, 48.5, 44, 48, 48.5, 41.5, 42 and 45.5 respectively.

[2] = tested on: maternal HIV+ sera (antibodies); experiment: RIA / ELISA binding of maternal HIV+ sera to gp120 and gp41 peptides (Example 3); parameters: species or system human
Method in brief: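 Peptides were coated at 10 μg/ml in carbonate buffer pH 9.6 and blocked with 1% BSA. Sera at 1:50 and 1:500 were incubated overnight at 4°C and detected with ¹²⁵I anti-human IgG (RIA) or HRP/TMB at OD450 (ELISA). Specific binding was taken as peptide minus no-peptide wells, scored as a ratio to normal human serum.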

HIV-1 = conditions: cited from earlier work
[3] = tested on: maternal sera (antibodies); experiment: ELISA peptide-binding of maternal sera (Example 6); parameters: species or system human
Method in brief: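 Third-trimester maternal sera, from HIV-1 transmitting and non-transmitting mothers, were tested by ELISA against ~16-residue peptides spanning HIV-1 external and transmembrane glycoproteins. Each serum was run with at least 40 peptides, and values are the percentage of sera binding each peptide.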

Sequence: CFRPGGGDMRDNWREL [Peptide 466]
- Antisyncytial activity of non-transmission sera which reacted with the peptide ([1]; Example 5): possessed, to varying degrees, antisyncytial activity
- Number of samples which bound the peptide and possessed anti-syncytial activity ([1]; sera which bound the peptide): all of them
- Number of maternal sera binding to peptide ([2]; 20 maternal sera): three
- Binding of maternal sera to peptide (in words) ([2]; Example 3): very strong binding
- Binding of maternal HIV+ serum to peptide (sera/NHS ratio) ([2]; Serum No. 1, Non-Transmission Group): - (specific OD450 or cpm of sera sample binding to peptide divided by the specific OD450 or cpm of NHS sample binding to peptide, which value is less than 2)
- Binding of maternal HIV+ serum to peptide (sera/NHS ratio) ([2]; Serum No. 2, Non-Transmission Group): - (specific OD450 or cpm of sera sample binding to peptide divided by the specific OD450 or cpm of NHS sample binding to peptide, which value is less than 2)
- Binding of maternal HIV+ serum to peptide (sera/NHS ratio) ([2]; Serum No. 3, Non-Transmission Group): - (specific OD450 or cpm of sera sample binding to peptide divided by the specific OD450 or cpm of NHS sample binding to peptide, which value is less than 2)
- Binding of maternal HIV+ serum to peptide (sera/NHS ratio) ([2]; Serum No. 4, Transmission Group): - (specific OD450 or cpm of sera sample binding to peptide divided by the specific OD450 or cpm of NHS sample binding to peptide, which value is less than 2)
- Binding of maternal HIV+ serum to peptide (sera/NHS ratio) ([2]; Serum No. 5, Transmission Group): - (specific OD450 or cpm of sera sample binding to peptide divided by the specific OD450 or cpm of NHS sample binding to peptide, which value is less than 2)
- Binding of maternal HIV+ serum to peptide (sera/NHS ratio) ([2]; Serum No. 6, Non-Transmission Group): + (which value is between 2 to 3)
- Binding of maternal HIV+ serum to peptide (sera/NHS ratio) ([2]; Serum No. 7, Non-Transmission Group): - (specific OD450 or cpm of sera sample binding to peptide divided by the specific OD450 or cpm of NHS sample binding to peptide, which value is less than 2)
- Binding of maternal HIV+ serum to peptide (sera/NHS ratio) ([2]; Serum No. 8, Non-Transmission Group): - (specific OD450 or cpm of sera sample binding to peptide divided by the specific OD450 or cpm of NHS sample binding to peptide, which value is less than 2)
- Binding of maternal HIV+ serum to peptide (sera/NHS ratio) ([2]; Serum No. 9, Non-Transmission Group): ++ (which value is greater than 3)
- Binding of maternal HIV+ serum to peptide (sera/NHS ratio) ([2]; Serum No. 10, Transmission Group): - (specific OD450 or cpm of sera sample binding to peptide divided by the specific OD450 or cpm of NHS sample binding to peptide, which value is less than 2)
- Binding of maternal HIV+ serum to peptide (sera/NHS ratio) ([2]; Serum No. 11, Non-Transmission Group): - (specific OD450 or cpm of sera sample binding to peptide divided by the specific OD450 or cpm of NHS sample binding to peptide, which value is less than 2)
- Binding of maternal HIV+ serum to peptide (sera/NHS ratio) ([2]; Serum No. 12, Non-Transmission Group): - (specific OD450 or cpm of sera sample binding to peptide divided by the specific OD450 or cpm of NHS sample binding to peptide, which value is less than 2)
- Binding of maternal HIV+ serum to peptide (sera/NHS ratio) ([2]; Serum No. 13, Transmission Group): - (specific OD450 or cpm of sera sample binding to peptide divided by the specific OD450 or cpm of NHS sample binding to peptide, which value is less than 2)
- Binding of maternal HIV+ serum to peptide (sera/NHS ratio) ([2]; Serum No. 14, Transmission Group): - (specific OD450 or cpm of sera sample binding to peptide divided by the specific OD450 or cpm of NHS sample binding to peptide, which value is less than 2)
- Binding of maternal HIV+ serum to peptide (sera/NHS ratio) ([2]; Serum No. 15, Transmission Group): - (specific OD450 or cpm of sera sample binding to peptide divided by the specific OD450 or cpm of NHS sample binding to peptide, which value is less than 2)
- Binding of maternal HIV+ serum to peptide (sera/NHS ratio) ([2]; Serum No. 16, Non-Transmission Group): - (specific OD450 or cpm of sera sample binding to peptide divided by the specific OD450 or cpm of NHS sample binding to peptide, which value is less than 2)
- Binding of maternal HIV+ serum to peptide (sera/NHS ratio) ([2]; Serum No. 17, Non-Transmission Group): - (specific OD450 or cpm of sera sample binding to peptide divided by the specific OD450 or cpm of NHS sample binding to peptide, which value is less than 2)
- Binding of maternal HIV+ serum to peptide (sera/NHS ratio) ([2]; Serum No. 18, Non-Transmission Group): + (which value is between 2 to 3)
- Binding of maternal HIV+ serum to peptide (sera/NHS ratio) ([2]; Serum No. 19, Transmission Group): - (specific OD450 or cpm of sera sample binding to peptide divided by the specific OD450 or cpm of NHS sample binding to peptide, which value is less than 2)
- Binding of maternal HIV+ serum to peptide (sera/NHS ratio) ([2]; Serum No. 20, Non-Transmission Group): - (specific OD450 or cpm of sera sample binding to peptide divided by the specific OD450 or cpm of NHS sample binding to peptide, which value is less than 2)
- Percent of the maternal serum samples that bound to the peptide ([2]; all 20 samples): 15%
- Number of binding maternal sera from the non-transmission group ([2]; non-transmission group (13 sera)): three
- Number of binding maternal sera from the transmission group ([2]; vertical transmission group (7 sera)): Zero
- Neutralizing activity of antisera generated to the peptide (HIV-1; antisera (animals)): exhibit neutralizing activity
- Antisyncytial and neutralizing activities elicited by the peptide (HIV-1; in words, Example 5): can elicit both antisyncytial and neutralizing activities
- Number of Non-Transmitters which bound to peptide ([3]; Non-Transmitters, N = 12): 0
- Percent of Non-Transmitters which bound to peptide ([3]; Non-Transmitters, N = 12): 0%
- Number of Transmitters which bound to peptide ([3]; Transmitters, N = 4): 0
- Percent of Transmitters which bound to peptide ([3]; Transmitters, N = 4): 0%
